Reference: PubChem BioAssay AID206 (DTP/NCI, 2004)
“And” between values parts separate entries of the source, which are not always exact repeats. Equal entries are not always repeated. Records with an inconclusive call do not appear.

Tested on: nude mice, HT29 intrarenal xenograft, tumor weight T/C
Experiment: NCI In Vivo Anticancer Drug Screen. Data for tumor model HT29;CX-1 Human Adenocarcinoma (MER+) (intrarenal inoculation) in NU/NU Swiss (nude) mice
Details: endpoint: mean tumor weight change, higher = larger tumour
How it was run: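 Endpoint measured as tumor size or survival; ratio reported is treated group over vehicle controls.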

[1] = dose: 200.0 mg/kg/injection, schedule: Q01DX010 (sc), vehicle: saline with Tween-80
[2] = dose: 400.0 mg/kg/injection, schedule: Q01DX010 (sc), vehicle: saline with Tween-80
[3] = dose: 800.0 mg/kg/injection, schedule: Q01DX010 (sc), vehicle: saline with Tween-80
[4] = dose: 75.0 mg/kg/injection, schedule: Q04DX004 (sc), vehicle: Klucel (hydroxypropylcellulose) (HPC)
[5] = dose: 1200.0 mg/kg/injection, schedule: Q04DX004 (sc), vehicle: saline
[6] = dose: 2400.0 mg/kg/injection, schedule: Q04DX004 (sc), vehicle: saline

C=C1C(C)C2C(Cc3ccccc3)NC(=O)C23C(OC(C)=O)/C=C/C(C)(O)CC(C)C/C=C/C3C1O (centres undefined)
T/C (dose: 3.13 mg/kg/injection, schedule: Q04DX004 (sc), vehicle: distilled water + Tween-80): 42 % of control | T/C (dose: 6.25 mg/kg/injection, schedule: Q04DX004 (sc), vehicle: distilled water + Tween-80): 124 % of control | T/C (dose: 12.5 mg/kg/injection, schedule: Q04DX004 (sc), vehicle: distilled water + Tween-80): 87 % of control | T/C (dose: 25.0 mg/kg/injection, schedule: Q04DX004 (sc), vehicle: distilled water + Tween-80): 63 % of control

CCOC(=O)CNC(=O)CCCCSc1ncnc2nc[nH]c12
T/C (dose: 225.0 mg/kg/injection, schedule: Q04DX004 (sc), vehicle: saline with Tween-80): 162 % of control | T/C (dose: 450.0 mg/kg/injection, schedule: Q04DX004 (sc), vehicle: saline with Tween-80): 103 % of control

CCCCCCCCCCCCSC1=C(Cl)C(=O)C(OC)=C(OC)C1=O
T/C (dose: 75.0 mg/kg/injection, schedule: Q04DX004 (sc), vehicle: saline with Tween-80): 76 % of control | T/C (dose: 150.0 mg/kg/injection, schedule: Q04DX004 (sc), vehicle: saline with Tween-80): 36 % of control | T/C (dose: 300.0 mg/kg/injection, schedule: Q04DX004 (sc), vehicle: saline with Tween-80): 25 % of control

O=C(CO)c1ccc([N+](=O)[O-])cc1
T/C (dose: 100.0 mg/kg/injection, schedule: Q01DX010 (sc), vehicle: saline with Tween-80): 63 % of control | T/C [1]: 70 % of control | T/C [2]: 122 % of control | T/C [3]: 75 % of control

CCCCc1ccc(-n2c(C)c(COC(=O)NC)c(COC(=O)NC)c2C)cc1
T/C (dose: 50.0 mg/kg/injection, schedule: Q01DX010 (sc), vehicle: Klucel (hydroxypropylcellulose) (HPC)): 218 % of control | T/C (dose: 50.0 mg/kg/injection, schedule: Q04DX004 (sc), vehicle: Klucel (hydroxypropylcellulose) (HPC)): 53 % of control | T/C (dose: 100.0 mg/kg/injection, schedule: Q01DX010 (sc), vehicle: Klucel (hydroxypropylcellulose) (HPC)): 89 % of control | T/C (dose: 100.0 mg/kg/injection, schedule: Q04DX004 (sc), vehicle: Klucel (hydroxypropylcellulose) (HPC)): 53 % of control | T/C (dose: 200.0 mg/kg/injection, schedule: Q04DX004 (sc), vehicle: Klucel (hydroxypropylcellulose) (HPC)): 73 % of control | T/C (dose: 400.0 mg/kg/injection, schedule: Q04DX004 (sc), vehicle: Klucel (hydroxypropylcellulose) (HPC)): 49 % of control

C1CN2CCC1CC2
T/C (dose: 9.38 mg/kg/injection, schedule: Q04DX004 (sc), vehicle: saline with Tween-80): 65 % of control | T/C (dose: 18.75 mg/kg/injection, schedule: Q04DX004 (sc), vehicle: saline with Tween-80): 82 % of control

CN(C)c1ccc2c(N(C)C)cc(N(C)C)nc2c1
T/C [4]: 97 % of control

Clc1ccc(C(c2ccccc2Cl)C(Cl)Cl)cc1 (centres undefined)
T/C [5]: 99 % of control | T/C [6]: 64 % of control | T/C (dose: 4800.0 mg/kg/injection, schedule: Q04DX004 (sc), vehicle: saline): 77 % of control | T/C (dose: 9600.0 mg/kg/injection, schedule: Q04DX004 (sc), vehicle: saline): 67 % of control

O=C1C2(Cl)C3(Cl)C4(Cl)C(Cl)(Cl)C5(Cl)[C@]3(Cl)C1(Cl)[C@]5(Cl)C24Cl (some centres undefined)
T/C [4]: 60 % of control

Cc1nc(N)nc(N)c1-c1ccc(Cl)c(Cl)c1
T/C (dose: 0.32 mg/kg/injection, schedule: Q01DX010 (sc), vehicle: saline): 46 % of control | T/C (dose: 0.63 mg/kg/injection, schedule: Q01DX010 (sc), vehicle: saline): 75 % of control | T/C (dose: 1.25 mg/kg/injection, schedule: Q01DX010 (sc), vehicle: saline): 100 % of control | T/C (dose: 2.5 mg/kg/injection, schedule: Q01DX010 (sc), vehicle: saline): 68 % of control

N#CC(=C1SCS1)[N+](=O)[O-]
T/C (dose: 12.0 mg/kg/injection, schedule: Q04DX004 (sc), vehicle: saline): 22 % of control | T/C (dose: 24.0 mg/kg/injection, schedule: Q04DX004 (sc), vehicle: saline): 154 % of control | T/C (dose: 48.0 mg/kg/injection, schedule: Q04DX004 (sc), vehicle: saline): 32 % of control | T/C (dose: 96.0 mg/kg/injection, schedule: Q04DX004 (sc), vehicle: saline): 45 % of control

OCC1OC(n2cnc3c(NO)ncnc32)C(O)C1O (centres undefined)
T/C (dose: 150.0 mg/kg/injection, schedule: Q04DX004 (sc), vehicle: Klucel (hydroxypropylcellulose) (HPC)): 47 % of control | T/C (dose: 300.0 mg/kg/injection, schedule: Q04DX004 (sc), vehicle: Klucel (hydroxypropylcellulose) (HPC)): 46 % of control | T/C (dose: 600.0 mg/kg/injection, schedule: Q04DX004 (sc), vehicle: Klucel (hydroxypropylcellulose) (HPC)): 52 % of control | T/C (dose: 1200.0 mg/kg/injection, schedule: Q04DX004 (sc), vehicle: Klucel (hydroxypropylcellulose) (HPC)): 28 % of control

CN(C)[C@@H]1C(=O)C(C(N)=O)=C(O)[C@@]2(O)C(=O)C3=C(O)c4c(O)ccc(Cl)c4[C@@](C)(O)[C@H]3C[C@@H]12
T/C (dose: 200.0 mg/kg/injection, schedule: Q04DX004 (sc), vehicle: saline): 62 % of control | T/C (dose: 400.0 mg/kg/injection, schedule: Q04DX004 (sc), vehicle: saline): 87 % of control | T/C (dose: 800.0 mg/kg/injection, schedule: Q04DX004 (sc), vehicle: saline): 82 % of control | T/C (dose: 1600.0 mg/kg/injection, schedule: Q04DX004 (sc), vehicle: saline): 66 % of control

Nc1cccc(=O)[nH]1
T/C (dose: 300.0 mg/kg/injection, schedule: Q04DX004 (sc), vehicle: saline): 115 % of control | T/C (dose: 600.0 mg/kg/injection, schedule: Q04DX004 (sc), vehicle: saline): 96 % of control | T/C [5]: 87 % of control | T/C [6]: 79 % of control

Cc1c2c(ccc3ccccc32)c[n+]2ccccc12
T/C (dose: 6.25 mg/kg/injection, schedule: Q01DX010 (sc), vehicle: saline): 84 % of control | T/C (dose: 12.5 mg/kg/injection, schedule: Q01DX010 (sc), vehicle: saline): 82 % of control

C1CN1c1nc(N2CC2)nc(N2CC2)n1
T/C (dose: 0.25 mg/kg/injection, schedule: Q01DX010 (sc), vehicle: saline): 213 % of control

CN=C(N)N/N=C(\c1ccccc1)c1ccc(Br)cc1
T/C (dose: 50.0 mg/kg/injection, schedule: Q04DX004 (sc), vehicle: saline with Tween-80): 90 % of control and 92 % of control and 104 % of control

CCC1OCC(C(Cl)CCl)O1 (centres undefined)
T/C (dose: 37.5 mg/kg/injection, schedule: Q01DX014 (sc), vehicle: Klucel (hydroxypropylcellulose) (HPC)): 100 % of control | T/C (dose: 37.5 mg/kg/injection, schedule: Q04DX014 (sc), vehicle: Klucel (hydroxypropylcellulose) (HPC)): 58 % of control | T/C (dose: 75.0 mg/kg/injection, schedule: Q01DX014 (sc), vehicle: Klucel (hydroxypropylcellulose) (HPC)): 193 % of control | T/C (dose: 75.0 mg/kg/injection, schedule: Q04DX014 (sc), vehicle: Klucel (hydroxypropylcellulose) (HPC)): 30 % of control | T/C (dose: 150.0 mg/kg/injection, schedule: Q01DX014 (sc), vehicle: Klucel (hydroxypropylcellulose) (HPC)): 86 % of control | T/C (dose: 150.0 mg/kg/injection, schedule: Q04DX014 (sc), vehicle: Klucel (hydroxypropylcellulose) (HPC)): 1 % of control | T/C (dose: 300.0 mg/kg/injection, schedule: Q01DX014 (sc), vehicle: Klucel (hydroxypropylcellulose) (HPC)): 122 % of control | T/C (dose: 300.0 mg/kg/injection, schedule: Q04DX004 (sc), vehicle: other): 83 % of control | T/C (dose: 300.0 mg/kg/injection, schedule: Q04DX014 (sc), vehicle: Klucel (hydroxypropylcellulose) (HPC)): -30 % of control | T/C (dose: 600.0 mg/kg/injection, schedule: Q01DX014 (sc), vehicle: Klucel (hydroxypropylcellulose) (HPC)): 25 % of control | T/C (dose: 600.0 mg/kg/injection, schedule: Q04DX004 (sc), vehicle: other): 21 % of control | T/C (dose: 600.0 mg/kg/injection, schedule: Q04DX014 (sc), vehicle: Klucel (hydroxypropylcellulose) (HPC)): -99 % of control

Cc1cc2nc3c(=O)[nH]c(=O)nc-3n(CC(O)C(O)C(O)C(O)CO)c2cc1C (centres undefined)
T/C (dose: 600.0 mg/kg/injection, schedule: Q04DX004 (sc), vehicle: saline with Tween-80): 94 % of control | T/C (dose: 1200.0 mg/kg/injection, schedule: Q04DX004 (sc), vehicle: saline with Tween-80): 78 % of control | T/C (dose: 2400.0 mg/kg/injection, schedule: Q04DX004 (sc), vehicle: saline with Tween-80): 90 % of control

O=C(N/N=C\c1cc(Br)cc(Br)c1O)N/N=C/c1cc(Br)cc(Br)c1O
T/C [1]: 71 % of control and 94 % of control | T/C [2]: 43 % of control and 56 % of control | T/C [3]: 76 % of control
